Measurements taken from PubChem BioAssay (NCI).
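The concentration for 50% growth inhibition is given as GI50. TGI: total growth inhibition.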

Assays:
Test in all cases: DTP human tumour cell line panel, 384-well format
[1] = tested on: 786-0 renal
[2] = tested on: A498 renal
[3] = tested on: A549 NSCLC
[4] = tested on: ACHN renal
[5] = tested on: BT-549 breast
[6] = tested on: CAKI-1 renal
[7] = tested on: CCRF-CEM leukemia
[8] = tested on: COLO 205 colon
[9] = tested on: DU-145 prostate
[10] = tested on: HCC-2998 colon
[11] = tested on: HCT-116 colon
[12] = tested on: HCT-15 colon
[13] = tested on: HL-60(TB) leukemia
[14] = tested on: HOP-62 NSCLC
[15] = tested on: HOP-92 NSCLC
[16] = tested on: HT29 colon
[17] = tested on: IGROV1 ovarian
[18] = tested on: K-562 leukemia
[19] = tested on: KM12 colon
[20] = tested on: LOX IMVI melanoma
[21] = tested on: M14 melanoma
[22] = tested on: MALME-3M melanoma
[23] = tested on: MCF7 breast
[24] = tested on: MDA-MB-231 breast
[25] = tested on: MDA-MB-435 melanoma
[26] = tested on: MDA-MB-468 breast
[27] = tested on: MOLT-4 leukemia
[28] = tested on: NCI-H226 lung
[29] = tested on: NCI-H322M lung
[30] = tested on: NCI-H460 NSCLC
[31] = tested on: NCI-H522 lung
[32] = tested on: NCI/ADR-RES ovarian
[33] = tested on: OVCAR-4 ovarian
[34] = tested on: OVCAR-5 ovarian
[35] = tested on: OVCAR-8 ovarian
[36] = tested on: PC-3 prostate
[37] = tested on: RPMI-8226 leukemia
[38] = tested on: RXF 393 renal
[39] = tested on: SF-268 CNS
[40] = tested on: SF-539 CNS
[41] = tested on: SK-MEL-2 melanoma
[42] = tested on: SK-MEL-28 melanoma
[43] = tested on: SK-MEL-5 melanoma
[44] = tested on: SK-OV-3 ovarian
[45] = tested on: SN12C renal
[46] = tested on: SNB-19 CNS
[47] = tested on: SR leukemia
[48] = tested on: SW-620 colon
[49] = tested on: TK-10 renal
[50] = tested on: U251 glioblastoma
[51] = tested on: UACC-257 melanoma
[52] = tested on: UACC-62 melanoma
[53] = tested on: UO-31 renal

Question: `Cc1c(F)c(N)c2c(=O)cc(-c3ccc(NC(=O)[C@@H](N)CCCCN)c(F)c3)oc2c1F` was tested. Which GI50 [1] did it give?
Answer: 9.12 µM

Question: What about the TGI [1] of the same molecule?
Answer: 21.3 µM

Question: What about the GI50 [2] of the same molecule?
Answer: 0.0368 µM

Question: And the TGI [2]?
Answer: 0.182 µM

Question: And the GI50 [3]?
Answer: 1.72 µM

Question: And the TGI [3]?
Answer: 17.1 µM

Question: What about the GI50 [4] of the same molecule?
Answer: 11.2 µM

Question: What about the TGI [4] of the same molecule?
Answer: 23.3 µM

Question: And the GI50 [5]?
Answer: 5.47 µM

Question: What about the TGI [5] of the same molecule?
Answer: 17.9 µM

Question: And the GI50 [6]?
Answer: 1.52 µM

Question: What about the TGI [6] of the same molecule?
Answer: 19.5 µM

Question: What about the GI50 [7] of the same molecule?
Answer: 1.6 µM

Question: What about the TGI [7] of the same molecule?
Answer: 3.08 µM

Question: And the GI50 [8]?
Answer: 6.39 µM

Question: And the TGI [8]?
Answer: 18 µM

Question: What about the GI50 [9] of the same molecule?
Answer: 12.5 µM

Question: What about the TGI [9] of the same molecule?
Answer: 25 µM

Question: What about the GI50 [10] of the same molecule?
Answer: 11.7 µM

Question: And the TGI [10]?
Answer: 24 µM

Question: And the GI50 [11]?
Answer: 1.01 µM

Question: What about the TGI [11] of the same molecule?
Answer: 2.57 µM

Question: What about the GI50 [12] of the same molecule?
Answer: 8.41 µM

Question: What about the TGI [12] of the same molecule?
Answer: 20.6 µM

Question: And the GI50 [13]?
Answer: 0.878 µM

Question: What about the TGI [13] of the same molecule?
Answer: 15.4 µM

Question: And the GI50 [14]?
Answer: 9.12 µM

Question: And the TGI [14]?
Answer: 21.5 µM

Question: And the GI50 [15]?
Answer: 4.95 µM

Question: What about the TGI [15] of the same molecule?
Answer: 15.7 µM

Question: And the GI50 [16]?
Answer: 13.2 µM

Question: What about the TGI [16] of the same molecule?
Answer: 26 µM

Question: And the GI50 [17]?
Answer: 0.0154 µM

Question: And the TGI [17]?
Answer: 0.0561 µM

Question: What about the GI50 [18] of the same molecule?
Answer: 1.09 µM

Question: What about the TGI [18] of the same molecule?
Answer: 2.85 µM

Question: What about the GI50 [19] of the same molecule?
Answer: 2.31 µM

Question: And the TGI [19]?
Answer: 5.46 µM

Question: What about the GI50 [20] of the same molecule?
Answer: 10.2 µM

Question: And the TGI [20]?
Answer: 21.9 µM

Question: And the GI50 [21]?
Answer: 2.86 µM

Question: And the TGI [21]?
Answer: 6.82 µM

Question: What about the GI50 [22] of the same molecule?
Answer: 4.61 µM

Question: And the TGI [22]?
Answer: 12.1 µM

Question: And the GI50 [23]?
Answer: 0.0266 µM

Question: What about the TGI [23] of the same molecule?
Answer: 0.146 µM

Question: What about the GI50 [24] of the same molecule?
Answer: 5.54 µM

Question: And the TGI [24]?
Answer: 17.4 µM

Question: And the GI50 [25]?
Answer: 3.27 µM

Question: What about the TGI [25] of the same molecule?
Answer: 8.1 µM

Question: What about the TGI [26] of the same molecule?
Answer: 0.0175 µM

Question: What about the GI50 [27] of the same molecule?
Answer: 1.57 µM

Question: And the TGI [27]?
Answer: 2.91 µM

Question: And the GI50 [28]?
Answer: 0.0195 µM

Question: And the TGI [28]?
Answer: 0.128 µM

Question: What about the GI50 [29] of the same molecule?
Answer: 9.87 µM

Question: And the TGI [29]?
Answer: 21.5 µM

Question: And the GI50 [30]?
Answer: 0.37 µM

Question: What about the TGI [30] of the same molecule?
Answer: 2.03 µM

Question: What about the GI50 [31] of the same molecule?
Answer: 4.75 µM

Question: And the TGI [31]?
Answer: 18.6 µM

Question: What about the GI50 [32] of the same molecule?
Answer: 12.7 µM

Question: What about the TGI [32] of the same molecule?
Answer: 25.3 µM

Question: What about the GI50 [33] of the same molecule?
Answer: 8.64 µM

Question: What about the TGI [33] of the same molecule?
Answer: 21 µM

Question: What about the GI50 [34] of the same molecule?
Answer: 0.046 µM

Question: And the TGI [34]?
Answer: 12 µM

Question: What about the GI50 [35] of the same molecule?
Answer: 6.35 µM

Question: And the TGI [35]?
Answer: 19.5 µM

Question: And the GI50 [36]?
Answer: 13.3 µM

Question: What about the TGI [36] of the same molecule?
Answer: 26.1 µM

Question: And the GI50 [37]?
Answer: 0.804 µM

Question: And the TGI [37]?
Answer: 3.31 µM

Question: And the GI50 [38]?
Answer: 8.49 µM

Question: And the TGI [38]?
Answer: 20.7 µM

Question: What about the GI50 [39] of the same molecule?
Answer: 6.37 µM

Question: And the TGI [39]?
Answer: 18.9 µM

Question: And the GI50 [40]?
Answer: 2.27 µM

Question: And the TGI [40]?
Answer: 4.54 µM

Question: And the GI50 [41]?
Answer: 2.98 µM

Question: And the TGI [41]?
Answer: 11.9 µM

Question: And the GI50 [42]?
Answer: 13.4 µM

Question: And the TGI [42]?
Answer: 26.2 µM

Question: What about the GI50 [43] of the same molecule?
Answer: 0.378 µM

Question: And the TGI [43]?
Answer: 12.4 µM

Question: What about the GI50 [44] of the same molecule?
Answer: 3.17 µM

Question: What about the TGI [44] of the same molecule?
Answer: 12 µM

Question: And the GI50 [45]?
Answer: 10.3 µM

Question: And the TGI [45]?
Answer: 22 µM

Question: What about the GI50 [46] of the same molecule?
Answer: 11.3 µM

Question: What about the TGI [46] of the same molecule?
Answer: 23.4 µM

Question: What about the GI50 [47] of the same molecule?
Answer: 1.52 µM

Question: What about the TGI [47] of the same molecule?
Answer: 2.89 µM

Question: And the GI50 [48]?
Answer: 2.56 µM

Question: And the TGI [48]?
Answer: 11.5 µM

Question: What about the GI50 [49] of the same molecule?
Answer: 0.13 µM

Question: What about the TGI [49] of the same molecule?
Answer: 12.6 µM

Question: What about the GI50 [50] of the same molecule?
Answer: 1.26 µM

Question: And the TGI [50]?
Answer: 2.6 µM

Question: What about the GI50 [51] of the same molecule?
Answer: 0.285 µM

Question: And the TGI [51]?
Answer: 0.884 µM

Question: What about the GI50 [52] of the same molecule?
Answer: 0.618 µM

Question: What about the TGI [52] of the same molecule?
Answer: 16 µM

Question: What about the GI50 [53] of the same molecule?
Answer: 11.1 µM

Question: What about the TGI [53] of the same molecule?
Answer: 23.1 µM
